# Values quoted from earlier work, collected in patent US20090324709A1, “LIPOSOMAL FORMULATIONS” (Italfarmaco, S.A., priority 2004, published 2009).
# Where two headings read alike, the source gives them in different places.
# Conditions: for retention of iododeoxyuridine: egg PC:cholesterol 15:1 DRV liposomes; for retention of acyclovir: neutral egg PC:cholesterol 15:1 DRV liposomes; for release of 5-FU: DSPC liposomes, six hours after preparation
structure (smiles),measurement,setting,value
CN(Cc1cnc2nc(N)nc(N)c2n1)c1ccc(C(=O)N[C@@H](CCC(=O)O)C(=O)O)cc1 [methotrexate],methotrexate retention,"EPC liposomes, MLV and REV, 30 days at 4° C.",70%
same,methotrexate retention,"EPC liposomes, MLV and REV, 30 days at 25° C.",40%
same,methotrexate retention,"EPC liposomes, MLV and REV, 30 days at 37° C.",< 10%
same,methotrexate retention,"MLV HSPC:CHOL and HSPC:CHOL:DCP, 8 hours at 37° C.",35%
O=c1[nH]c(=O)n([C@H]2C[C@H](O)[C@@H](CO)O2)cc1I [iododeoxyuridine],retention of iododeoxyuridine,24 hours at 4° C.,50%
same,retention of iododeoxyuridine,one hour at 37° C.,20%
O=c1[nH]c(=O)n([C@H]2C[C@H](O)[C@@H](CO)O2)cc1F [floxuridine],retention of floxuridine,"MLV SM:CHOL:DCP 4.8:2.8:1, 40 hours at 25° C.",70%
Nc1nc2c(ncn2COCCO)c(=O)[nH]1 [acyclovir],retention of acyclovir,24 hours at 37° C.,48%
same,retention of acyclovir,14 days at 4° C.,44%
"O=c1[nH]cc(F)c(=O)[nH]1 [Example 5-FU, 5-fluorouracil]",release of 5-FU,25° C.,10%
same,release of 5-FU,37° C.,50%
same,5-FU that escapes,"LUV DSPC liposomes, 60 minutes",more than 75%
same,escape of 5-FU,"LUV SPC, SPC:Cholesterol (1:1), SPC:Cholate (84:16), in saturated 5-FU solution, after 50 minutes",more than 50%
same,release of the drug on eliminating the pH gradient,"LUV liposomes actively charged through pH gradient (U.S. Pat. No. 6,083,530)",immediate
same,release of initially encapsulated 5-FU,"SPC:Cholate liposomes in solution without 5-FU, after 5 minutes",80%
same,5-FU initially encapsulated still inside the liposomes,"multilamellar liposomes of sphingomyelin, cholesterol and dicetyl-phosphate, 40 hours at 25° C.",20%
same,5-FU remaining inside,"type A liposome soy lecithin:cholesterol hemisuccinate:cholesterol (10:1:4), 28 days at room temperature",10%
same,5-FU released,"type B liposomes DPPC:cholesterol hemisuccinate:cholesterol (10:1:4), 42 days at room temperature",40%
